The record followed here is patent US5147876A, “2,6-di,2,4,6-, 2,5,6-tri and 2,4,5,6-tetra-substituted pyrimidines, their pharmaceutically acceptable salts, pharmaceutical compositions containing same and their use in the treatment of neurological diseases” (Mitsui Petrochemical Industries, Ltd., priority 1988, dated 1992).

The test system of the assay is neuro-2a (mouse neuroblastoma cells). Description: Action on neuro-2a: proportion of cells containing outgrown neurites. The settings on record: mean ± S.D. The assay is classed as cell-based. The method, then: The effects of the compounds of this invention on neuroblastoma cells were examined by the following method.
Mouse neuro 2a cells in the logarithmic growth period in the Dulbecco's modified Eagle's medium DMEM, containing 100 units/ml of penicillin G sodium and 100 micrograms/ml of streptomycin sulfate]containing 10 % of FCS were seeded in a 48-well plate so that the number of cells was 1,000 cells/well, and cultured for one day in 0.25 ml of the culture fluid in each well in an incubator containing 5 % of carbon dioxide gas in air at 37° C. Then, a 4 % aqueous glutaraldehyde solution in the same amount as a medium (0.25 ml) was added, and the culture fluid was left to stand at room temperature for 2 hours to fix the cells. After washing with water, a 0.05 % aqueous solution of methylene blue was added to stain the cells Under a microscope, the number of cells containing outgrown neurites (cells having at least one neurite with a length of at least two times as large as the long diameter of the cell) was counted visually, and the proportion of these cells in the entire cells was calculated. The well was observed over 5 or more visual fields (at least 2 % of the entire surface area of the well) continuous to the left and right from a mark put at the center of the well, and more than 200 cells was counted. One drug compound was used in 6 different concentrations at most, and three runs were conducted for each concentrations.

For the molecule `CC1CCN(c2nccc(N(C(=O)c3ccccc3)c3ccccc3)n2)CC1.Cc1ccc(S(=O)(=O)O)cc1` [Compound 150], the “Number of cells having neurites with a length at least two times the diameter of each cell/total number of cells” value (“Number … of each cell/total number of cells” below) runs as follows: (0.03 mM) 9.3 ± 1.9%; (0.1 mM) 13.6 ± 1.2%; (0.3 mM) 6.6 ± 3.0%.
Turning to `CN(C(=O)c1ccccc1)c1ccnc(N2CCC(c3ccccc3)CC2)n1` [Compound 165], the “Number … of each cell/total number of cells” value is given as 41.0 ± 0.7% (0.1 mM) and 12.4 ± 1.8% (0.3 mM).
Regarding `CN(C(=O)c1ccccc1)c1ccnc(N2CCC(c3ccccc3)CC2)n1` [Compound 166], the “Number … of each cell/total number of cells” value is recorded as 36.8 ± 7.1% (0.1 mM) and 13.4 ± 4.0% (0.3 mM).
Take `CN(C(=O)c1ccccc1)c1ccnc(N2CCC(c3ccccc3)CC2)n1` [Compound 167]: the “Number … of each cell/total number of cells” value is, setting by setting: (0.1 mM) 22.5 ± 3.4%; (0.3 mM) 9.3 ± 2.3%.
Taken in the same sequence, the figures for `Cc1ccc(C(=O)N(C)c2ccnc(N3CCC(c4ccccc4)CC3)n2)cc1` [Compound 171-3] were 28.8 ± 3.1% and 19.5 ± 7.0%.
On to `CN(C(=O)c1ccccc1)c1ccnc(N2CCC(c3ccccc3)CC2)n1` [Compound 171], for which the “Number … of each cell/total number of cells” value by setting is: (0.1 mM) 37.1 ± 1.9%; (0.3 mM) 8.8 ± 2.6%.
`CN(C(=O)c1ccccc1)c1ccnc(N2CCC(C(=O)c3ccccc3)CC2)n1` [Compound 306]: the “Number … of each cell/total number of cells” value runs as follows: (0.03 mM) 7.7 ± 0.5%; (0.1 mM) 2.8 ± 0.8%.
Consider `CN(C(=O)c1ccccc1)c1nccc(N2CCC(C(C)(C)C)CC2)n1` [Compound 620], for which the “Number … of each cell/total number of cells” value is, setting by setting: (0.01 mM) 4.7 ± 0.4%; (0.03 mM) 4.0 ± 1.3%.
Consider `CCN(C(=O)c1ccccc1)c1nccc(N2CCC(c3ccccc3)CC2)n1` [Compound 636], for which the “Number … of each cell/total number of cells” value (0.03 mM) was 12.1 ± 3.4% and the “Number … of each cell/total number of cells” value (0.1 mM) turned out to be 8.9 ± 5.2%.
For `CC(C)N(C(=O)c1ccccc1)c1nccc(N2CCC(c3ccccc3)CC2)n1` [Compound 652], the “Number … of each cell/total number of cells” value turned out to be 6.1 ± 0.6% (0.03 mM) and 12.5 ± 2.8% (0.1 mM).
As to `CC(C)N(Cc1ccccc1)c1nccc(N(C)C(=O)c2ccccc2)n1` [Compound 662], the “Number … of each cell/total number of cells” value is, setting by setting: (0.1 mM) 3.1 ± 1.6%; (0.3 mM) 2.6 ± 0.9%.
Turning to `CN(C(=O)c1ccc([N+](=O)[O-])cc1)c1nccc(N2CCC(c3ccccc3)CC2)n1` [Compound 676], the “Number … of each cell/total number of cells” value (0.3 mM) amounted to 6.0 ± 1.1% and the “Number … of each cell/total number of cells” value (1 mM) is given as 4.2 ± 2.1%.
Turning to `CN(C(=O)c1ccccc1)c1nccc(N2CCC(Cc3ccccc3)CC2)n1` [Compound 692], the “Number … of each cell/total number of cells” value (0.03 mM) came out at 5.8 ± 0.9% and the “Number … of each cell/total number of cells” value (0.1 mM) was 11.1 ± 2.9%.
For `COC(=O)c1cnc(NC(C)C)nc1C` [Compound 800, 2-isopropylamino-4-methyl-5-methoxycarbonylpyrimidine], the “Number … of each cell/total number of cells” value reads like this: (0.3 mM) 11.4 ± 1.2%; (1 mM) 25.7 ± 1.9%; (3 mM) 22.3 ± 0.7%; (10 mM) 16.9 ± 0.8%.
In the case of `CCOC(=O)c1cnc(N2CCCCC2)nc1CSC` [Compound 816], the “Number … of each cell/total number of cells” value by setting is: (0.03 mM) 4.7 ± 2.1%; (0.1 mM) 4.0 ± 0.3%.
As to `CNc1ccnc(N2CCCc3ccccc32)n1` [Compound 1034], the “Number … of each cell/total number of cells” value is, setting by setting: (0.03 mM) 3.9 ± 2.8%; (0.1 mM) 7.6 ± 2.1%; (0.3 mM) 11.3 ± 1.6%.
For the molecule `CNc1ccnc(N2CCc3ccccc3C2)n1` [Compound 1038], the “Number … of each cell/total number of cells” value runs as follows: (0.03 mM) 2.2 ± 0.4%; (0.1 mM) 2.9 ± 0.3%.
Turning to `CNc1nc(N2CCC(c3ccccc3)CC2)ncc1C` [Compound 1098], the “Number … of each cell/total number of cells” value (0.01 mM) amounted to 5.3 ± 1.4%, the “Number … of each cell/total number of cells” value (0.03 mM) was 10.2 ± 0.9% and the “Number … of each cell/total number of cells” value (0.1 mM) worked out at 5.7 ± 2.0%.
With `CNc1nc(N2CCCc3ccccc32)ncc1C` [Compound 1102], the “Number … of each cell/total number of cells” value amounted to 11.9 ± 0.7% (0.1 mM) and 10.1 ± 3.0% (0.3 mM).
As to `CNc1nc(C)cc(N2CCCCC2)n1` [Compound 1110], the “Number … of each cell/total number of cells” value stood at 3.4 ± 1.1% (0.01 mM), 4.4 ± 0.3% (0.03 mM), 6.3 ± 4.4% (0.1 mM) and 16.5 ± 2.1% (0.3 mM).
On to `CNc1nccc(N2CCC(c3ccccc3)CC2)n1` [Compound 1122], for which the “Number … of each cell/total number of cells” value was found to be 4.2 ± 2.1% (0.01 mM) and 10.2 ± 3.8% (0.03 mM).
As for `CNc1nccc(N2CCc3ccccc3C2)n1` [Compound 1130], the “Number … of each cell/total number of cells” value is, setting by setting: (0.03 mM) 1.8 ± 0.5%; (0.1 mM) 2.0 ± 0.3%.
Regarding `Cc1ccc(S(=O)(=O)N(C)c2ccnc(N3CCC(c4ccccc4)CC3)n2)cc1` [Compound 2012], the “Number … of each cell/total number of cells” value is, setting by setting: (0.03 mM) 6.6 ± 1.2%; (0.3 mM) 6.6 ± 3.1%.
In the case of `CN(C(=O)c1ccccc1)c1ccnc(N2CCC(N3CCCCC3)CC2)n1` [Compound 2052], the “Number … of each cell/total number of cells” value amounted to 4.6 ± 2.1% (0.01 mM) and 3.7 ± 0.4% (0.03 mM).
As to `CN(C(=O)c1ccccc1)c1ccnc(N2CCC(O)CC2)n1` [Compound 2060], the “Number … of each cell/total number of cells” value is, setting by setting: (0.03 mM) 3.6 ± 0.1%; (1 mM) 7.6 ± 0.7%.
As for `CN(C(=O)c1ccccc1)c1ccnc(N2CCC(c3ccc([N+](=O)[O-])cc3)CC2)n1` [Compound 2076], the “Number … of each cell/total number of cells” value by setting is: (0.01 mM) 4.8 ± 1.4%; (0.03 mM) 1.9 ± 1.3%.
Regarding `CCOC(=O)C1CCN(c2nccc(N(C)C(=O)c3ccccc3)n2)CC1` [Compound 2100], the “Number … of each cell/total number of cells” value was determined as 4.4 ± 0.8% (0.03 mM) and 4.7 ± 1.4% (0.1 mM).
On to `CN(C(=O)c1ccccc1)c1ccnc(N(Cc2ccccc2)Cc2ccccc2)n1` [Compound 2108], for which the “Number … of each cell/total number of cells” value came to 4.8 ± 2.0% (0.03 mM) and 13.5 ± 0.1% (1 mM).
`CN(C(=O)c1ccccc1)c1ccnc(N2CCC(N(C)C)CC2)n1` [Compound 2148]: the “Number … of each cell/total number of cells” value runs as follows: (0.03 mM) 4.5 ± 1.3%; (0.1 mM) 4.2 ± 1.2%.
In the case of `CN(C(=O)c1ccccc1)c1ccnc(N2CCC(NC(=O)c3ccccc3)CC2)n1` [Compound 2174], under “0.01 mM”, the “Number … of each cell/total number of cells” value is given as 2.5 ± 1.0%.
For `CN(C(=O)c1ccccc1)c1ccnc(NC2CCNCC2)n1` [Compound 2188], the “Number … of each cell/total number of cells” value reads like this: (0.1 mM) 2.4 ± 0.9%; (0.3 mM) 3.8 ± 1.1%.
`CN(C(=O)c1ccc(NC(=O)c2ccccc2)cc1)c1ccnc(N2CCC(c3ccccc3)CC2)n1` [Compound 2194]: the “Number … of each cell/total number of cells” value runs as follows: (0.1 mM) 9.5 ± 3.5%; (0.3 mM) 7.6 ± 2.8%.
